In ChEMBL document CHEMBL1154339, “Pyranocoumarins: a new class of anti-hyperglycemic and anti-dyslipidemic agents” (Bioorg Med Chem Lett, 2009):
Calls of active or inactive are those of the source. The rule behind the calls is not given here.

Assays:
[1] = target: Dipeptidyl peptidase 4 (Homo sapiens) (UniProt P27487); test: Inhibition of DPP4 at 100 uM
[2] = target: Maltase-glucoamylase (Homo sapiens) (UniProt O43451); test: Inhibition of alpha-glucosidase at 100 uM
[3] = target: T1, Tyrosine-protein phosphatase non-receptor type 1 (Homo sapiens) (UniProt P18031); test: Inhibition of PTP1B at 100 uM
T1 sequence (whole entry): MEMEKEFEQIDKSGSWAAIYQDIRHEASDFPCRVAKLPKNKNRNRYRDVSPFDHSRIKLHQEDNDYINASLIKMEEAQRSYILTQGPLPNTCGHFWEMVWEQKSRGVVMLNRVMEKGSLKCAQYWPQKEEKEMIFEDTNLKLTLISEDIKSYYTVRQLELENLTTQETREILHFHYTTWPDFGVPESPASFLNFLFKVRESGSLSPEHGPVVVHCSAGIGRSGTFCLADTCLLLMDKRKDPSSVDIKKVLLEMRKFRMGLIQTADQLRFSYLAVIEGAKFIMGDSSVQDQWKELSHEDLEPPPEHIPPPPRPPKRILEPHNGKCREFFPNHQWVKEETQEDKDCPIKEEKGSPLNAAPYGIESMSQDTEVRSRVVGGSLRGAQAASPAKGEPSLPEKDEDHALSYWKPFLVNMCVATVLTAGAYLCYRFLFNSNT

[4] = Inhibition of glycogen phosphorylase assessed as inorganic phosphate release at 100 uM
[5] = target: T2, Glucose-6-phosphatase catalytic subunit 1 (Homo sapiens) (UniProt P35575); test: Inhibition of glucose 6 phosphatase assessed as inorganic phosphate release at 100 uM
T2 sequence (whole entry): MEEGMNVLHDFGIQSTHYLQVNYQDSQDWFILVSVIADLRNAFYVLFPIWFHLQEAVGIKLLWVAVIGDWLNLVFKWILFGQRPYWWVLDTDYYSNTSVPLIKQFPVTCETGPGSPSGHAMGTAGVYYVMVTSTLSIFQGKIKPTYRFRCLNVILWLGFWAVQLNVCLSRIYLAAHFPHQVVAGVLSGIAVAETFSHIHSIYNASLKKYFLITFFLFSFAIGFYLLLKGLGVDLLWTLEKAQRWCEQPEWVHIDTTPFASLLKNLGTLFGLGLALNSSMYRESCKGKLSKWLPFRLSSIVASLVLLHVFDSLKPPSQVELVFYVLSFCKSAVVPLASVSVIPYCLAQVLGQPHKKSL

[6] = test system: Rattus norvegicus; test: Antidyslipidemic activity against triton WR-1339-induced hyperlipidemia in Charles Foster rat assessed as reduction in plasma phospholipid level at 100 mg/kg, po after 18 hrs; type: functional
[7] = test system: Mus musculus; test: Antihyperglycemic in leptin receptor deficient mouse C57BL/KsBom-db assessed as blood glucose lowering activity at 100 mg/kg after 5 days by oral glucose tolerance test; type: functional
[8] = target: T3, Tyrosine-protein phosphatase non-receptor type 1 (Homo sapiens, UniProt P18031); test: Inhibition of PTP1B
T3 sequence (P18031 whole entry): T1 sequence (whole entry)

[9] = test system: Mus musculus; test: Antihyperglycemic in leptin receptor deficient mouse C57BL/KsBom-db assessed as blood glucose lowering activity at 100 mg/kg after 10 days by oral glucose tolerance test; type: functional
[10] = test system: Rattus norvegicus; test: Antidyslipidemic activity against triton WR-1339-induced hyperlipidemia in Charles Foster rat assessed as reduction in plasma triglyceride level at 100 mg/kg, po after 18 hrs; type: functional
[11] = test system: Rattus norvegicus; test: Antihyperglycemic activity in sucrose loaded Charles Foster/Wistar rat model assessed as reduction in blood glucose level at 100 mg/kg; type: functional; design: scale not given: the % may be the effect or the level left
[12] = test system: Rattus norvegicus; test: Antidyslipidemic activity against triton WR-1339-induced hyperlipidemia in Charles Foster rat assessed as reduction in plasma total cholesterol level at 100 mg/kg, po after 18 hrs; type: functional
[13] = test system: Rattus norvegicus; test: Antihyperglycemic activity in sucrose challenged streptozotocin-induced diabetic Sprague-Dawley rat model assessed as reduction in blood glucose level at 100 mg/kg after 24 hrs; type: functional; design: scale not given: the % may be the effect or the level left

Maltase-glucoamylase (Homo sapiens), sequence (O43451 whole entry, looked up): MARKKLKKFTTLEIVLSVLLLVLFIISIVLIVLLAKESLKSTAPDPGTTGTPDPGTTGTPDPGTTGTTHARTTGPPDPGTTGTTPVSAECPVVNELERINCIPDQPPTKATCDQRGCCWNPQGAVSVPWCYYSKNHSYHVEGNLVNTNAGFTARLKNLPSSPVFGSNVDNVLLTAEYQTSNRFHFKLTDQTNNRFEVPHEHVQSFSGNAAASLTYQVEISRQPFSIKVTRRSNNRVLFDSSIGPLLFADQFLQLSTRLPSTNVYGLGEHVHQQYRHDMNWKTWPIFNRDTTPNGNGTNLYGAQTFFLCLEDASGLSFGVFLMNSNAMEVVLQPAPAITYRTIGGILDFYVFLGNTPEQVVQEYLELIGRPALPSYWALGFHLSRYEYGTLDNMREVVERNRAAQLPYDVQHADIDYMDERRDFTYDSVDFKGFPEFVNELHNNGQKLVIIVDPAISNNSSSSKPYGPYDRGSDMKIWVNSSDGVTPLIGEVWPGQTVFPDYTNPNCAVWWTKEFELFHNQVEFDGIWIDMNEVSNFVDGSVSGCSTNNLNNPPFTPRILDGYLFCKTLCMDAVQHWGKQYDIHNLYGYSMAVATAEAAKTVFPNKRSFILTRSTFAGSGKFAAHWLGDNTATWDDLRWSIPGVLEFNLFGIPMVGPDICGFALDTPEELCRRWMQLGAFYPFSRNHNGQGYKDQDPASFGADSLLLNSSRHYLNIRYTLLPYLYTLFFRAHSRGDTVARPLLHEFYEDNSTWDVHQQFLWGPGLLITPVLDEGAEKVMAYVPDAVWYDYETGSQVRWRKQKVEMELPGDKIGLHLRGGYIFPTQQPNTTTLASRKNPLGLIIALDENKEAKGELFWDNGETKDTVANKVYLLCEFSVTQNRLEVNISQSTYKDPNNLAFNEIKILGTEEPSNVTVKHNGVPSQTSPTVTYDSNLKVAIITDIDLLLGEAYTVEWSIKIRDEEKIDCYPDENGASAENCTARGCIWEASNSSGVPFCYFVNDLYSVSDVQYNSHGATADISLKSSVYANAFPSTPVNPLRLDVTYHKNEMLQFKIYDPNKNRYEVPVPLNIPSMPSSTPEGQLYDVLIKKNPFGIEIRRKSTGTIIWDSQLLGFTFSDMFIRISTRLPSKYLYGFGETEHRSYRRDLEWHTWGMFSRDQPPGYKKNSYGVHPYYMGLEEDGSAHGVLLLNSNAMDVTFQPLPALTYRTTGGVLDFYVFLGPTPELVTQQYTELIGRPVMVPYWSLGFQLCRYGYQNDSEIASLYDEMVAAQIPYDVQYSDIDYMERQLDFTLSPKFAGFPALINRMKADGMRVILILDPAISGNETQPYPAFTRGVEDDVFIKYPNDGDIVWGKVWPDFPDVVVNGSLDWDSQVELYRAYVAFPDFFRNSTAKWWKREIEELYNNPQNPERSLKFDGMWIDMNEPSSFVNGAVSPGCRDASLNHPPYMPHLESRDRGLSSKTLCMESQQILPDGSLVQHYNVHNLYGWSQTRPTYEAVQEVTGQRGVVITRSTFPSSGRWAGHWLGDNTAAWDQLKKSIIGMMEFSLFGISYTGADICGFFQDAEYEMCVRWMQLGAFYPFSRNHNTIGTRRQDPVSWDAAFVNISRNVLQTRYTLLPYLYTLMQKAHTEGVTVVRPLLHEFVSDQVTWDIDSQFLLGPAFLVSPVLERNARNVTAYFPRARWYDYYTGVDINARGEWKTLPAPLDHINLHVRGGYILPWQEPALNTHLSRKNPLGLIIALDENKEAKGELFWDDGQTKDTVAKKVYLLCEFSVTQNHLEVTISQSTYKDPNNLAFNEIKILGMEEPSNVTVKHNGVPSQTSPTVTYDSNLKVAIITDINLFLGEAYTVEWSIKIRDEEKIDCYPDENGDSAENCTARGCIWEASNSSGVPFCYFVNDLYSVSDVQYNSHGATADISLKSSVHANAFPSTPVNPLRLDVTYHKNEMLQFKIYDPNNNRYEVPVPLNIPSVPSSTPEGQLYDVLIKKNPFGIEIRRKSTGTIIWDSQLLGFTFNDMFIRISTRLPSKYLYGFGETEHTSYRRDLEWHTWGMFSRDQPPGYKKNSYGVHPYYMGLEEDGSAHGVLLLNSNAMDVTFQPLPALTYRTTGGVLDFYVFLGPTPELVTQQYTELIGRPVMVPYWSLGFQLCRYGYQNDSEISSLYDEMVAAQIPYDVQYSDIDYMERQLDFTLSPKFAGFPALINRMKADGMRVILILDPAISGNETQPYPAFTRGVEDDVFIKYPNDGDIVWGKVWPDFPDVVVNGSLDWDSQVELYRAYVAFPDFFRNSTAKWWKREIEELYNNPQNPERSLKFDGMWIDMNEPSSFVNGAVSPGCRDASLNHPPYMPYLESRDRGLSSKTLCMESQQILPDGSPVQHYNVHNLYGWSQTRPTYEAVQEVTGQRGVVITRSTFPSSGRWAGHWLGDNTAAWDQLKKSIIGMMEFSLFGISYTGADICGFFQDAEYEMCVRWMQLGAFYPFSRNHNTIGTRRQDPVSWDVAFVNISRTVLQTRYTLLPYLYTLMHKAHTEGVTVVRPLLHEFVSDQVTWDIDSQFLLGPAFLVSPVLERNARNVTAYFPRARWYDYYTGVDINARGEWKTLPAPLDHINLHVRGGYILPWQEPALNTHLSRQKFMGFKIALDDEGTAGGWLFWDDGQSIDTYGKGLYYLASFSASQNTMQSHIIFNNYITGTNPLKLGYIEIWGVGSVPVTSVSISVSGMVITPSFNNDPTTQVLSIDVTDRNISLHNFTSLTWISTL
Dipeptidyl peptidase 4 (Homo sapiens), sequence (P27487 whole entry, looked up): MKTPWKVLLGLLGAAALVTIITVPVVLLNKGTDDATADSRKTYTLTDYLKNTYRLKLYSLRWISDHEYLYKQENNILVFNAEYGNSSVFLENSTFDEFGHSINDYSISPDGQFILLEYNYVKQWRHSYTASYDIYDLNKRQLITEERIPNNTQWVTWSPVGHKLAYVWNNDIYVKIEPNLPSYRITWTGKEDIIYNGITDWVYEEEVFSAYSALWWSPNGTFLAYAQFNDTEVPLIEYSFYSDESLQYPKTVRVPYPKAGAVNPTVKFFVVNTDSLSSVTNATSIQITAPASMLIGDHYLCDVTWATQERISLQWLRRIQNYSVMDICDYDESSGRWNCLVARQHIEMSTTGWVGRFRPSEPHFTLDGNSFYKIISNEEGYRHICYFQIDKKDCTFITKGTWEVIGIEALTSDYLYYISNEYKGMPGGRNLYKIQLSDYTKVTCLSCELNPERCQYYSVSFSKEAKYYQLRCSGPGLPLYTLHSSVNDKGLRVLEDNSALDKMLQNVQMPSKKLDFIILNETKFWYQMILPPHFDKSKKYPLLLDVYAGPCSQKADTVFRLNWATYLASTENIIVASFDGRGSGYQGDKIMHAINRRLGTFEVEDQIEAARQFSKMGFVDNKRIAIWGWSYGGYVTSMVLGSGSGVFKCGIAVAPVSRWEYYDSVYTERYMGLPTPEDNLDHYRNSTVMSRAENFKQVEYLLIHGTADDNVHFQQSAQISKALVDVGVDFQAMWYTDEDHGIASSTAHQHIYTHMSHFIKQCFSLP

| inhibition [1] | inhibition [2] | inhibition [3] [%] | inhibition [4] | inhibition [5] [%] | IC50 [8] [µM] | SMILES | Activity [6] | Activity [7] [%] | Activity [9] [%] | Activity [10] | Activity [11] [%] | Activity [12] | Activity [13] [%] |
| --- | --- | --- | --- | --- | --- | --- | --- | --- | --- | --- | --- | --- | --- |
| 6.8% | 7.3% | 33.3 | 17.2% | 13.8 |  | Cc1cc(=O)oc2c3c(ccc12)OCC(CN1CCCCC1)(CN1CCCCC1)C3=O |  |  |  |  |  |  |  |
| inactive | inactive | 92.2 | 8.4% | 12.4 | 24.5 | CCOCC1(CN2CCOCC2)COc2ccc3c(C)cc(=O)oc3c2C1=O (stereo not drawn) | Active | 21.1 | 38 | Active | 35.5 | Active | 35.5 |
| inactive | inactive | 74.1 | inactive | 24.2 | 90.4 | CCOCC1(CN(CC)CC)COc2ccc3c(C)cc(=O)oc3c2C1=O (stereo not drawn) | Active |  |  | Active |  | Active |  |
| 15.2% | 15.9% | 28.7 | 22.1% | 21.5 |  | Cc1cc(=O)oc2c3c(ccc12)OCC(CN1CCN(c2ccccc2)CC1)(CN1CCN(c2ccccc2)CC1)C3=O |  |  |  |  |  |  |  |
| inactive | 11.3% | 54.5 | 30.1% | 9.67 | 76.2 | CCOCC1(CN2CCN(c3ccccn3)CC2)COc2ccc3c(C)cc(=O)oc3c2C1=O (stereo not drawn) |  |  |  |  |  |  |  |
| 8.2% | inactive | 29.8 | 15.2% | 8.28 |  | Cc1cc(=O)oc2c3c(ccc12)OCC(CN1CCCC1)(CN1CCCC1)C3=O |  |  |  |  |  |  |  |
| 8.1% | 8.5% | 41.3 | 12.2% | 9.45 |  | CCN(CC)CC1(CN(CC)CC)COc2ccc3c(C)cc(=O)oc3c2C1=O |  |  |  |  |  |  |  |
|  |  |  |  |  |  | Cc1ccc(C)c(OCCCC(C)(C)C(=O)O)c1 [GEMFIBROZIL] | 39.1% |  |  | 36.1% |  | 37.1% |  |
| 9.8% | 15.8% | 41.3 | 11% | 28 |  | Cc1cc(=O)oc2c3c(ccc12)OCC(CN1CCN(c2ccccn2)CC1)(CN1CCN(c2ccccn2)CC1)C3=O |  |  |  |  |  |  |  |
| 11.4% | inactive | 43.6 | 11.1% | 20.4 |  | CCCCN(CCCC)CC1(CN(CCCC)CCCC)COc2ccc3c(C)cc(=O)oc3c2C1=O |  |  |  |  |  |  |  |
| inactive | 16.2% | 62.3 | inactive | 31.7 | 70.6 | CCOCC1(CN2CCN(c3ccccc3)CC2)COc2ccc3c(C)cc(=O)oc3c2C1=O (stereo not drawn) |  |  |  |  |  |  |  |
| 12% | 34.3% | 83.3 | inactive | 3.5 | 52.4 | Cc1cc(=O)oc2c3c(ccc12)OCC(CO)(CN1CCOCC1)C3=O (stereo not drawn) | Active |  |  | Active | 28.2 | Active | 25.3 |
| 7.9% | inactive | 70.3 | 26.9% | 17.4 | 65.5 | CCOCC1(CN2CCN(C)CC2)COc2ccc3c(C)cc(=O)oc3c2C1=O (stereo not drawn) | Active |  |  | Active | 32.5 | Active | 18.7 |
| inactive | 37.3% | 64 | inactive | 7.36 | 62.1 | Cc1cc(=O)oc2c3c(ccc12)OCC(CO)(CN1CCCCC1)C3=O (stereo not drawn) | Active |  |  | Active |  | Active |  |
| inactive | 27.9% | 80.5 | 8.7% | 11.1 | 40.5 | CCCCN(CCCC)CC1(COCC)COc2ccc3c(C)cc(=O)oc3c2C1=O (stereo not drawn) | Active |  |  | Active | 30.6 | Active | 24.4 |
| 8.3% | 22.1% | 74.6 | 8.3% | 5.83 | 56.7 | Cc1cc(=O)oc2c3c(ccc12)OCC(CO)(CN1CCCC1)C3=O (stereo not drawn) |  |  |  |  | 30.3 |  | 24 |
| 13.2% | 12% | 72.1 | 8.3% | 8.31 | 82.7 | CCOCC1(CN2CCCC2)COc2ccc3c(C)cc(=O)oc3c2C1=O (stereo not drawn) |  |  |  |  | 31.8 |  | 28.8 |
| 12.6% | inactive | 88.5 | 8.5% | 6.56 | 36.2 | CCOCC1(CN2CCCCC2)COc2ccc3c(C)cc(=O)oc3c2C1=O (stereo not drawn) | Active | 19.5 | 42 | Active | 38.1 | Active | 37.7 |
| 8.8% | 8.3% | 24.7 | 12.8% | 6.78 |  | Cc1cc(=O)oc2c3c(ccc12)OCC(CN1CCOCC1)(CN1CCOCC1)C3=O |  |  |  |  |  |  |  |
| 12.5% | 6.4% | 22 | 10.2% | 13 |  | Cc1cc(=O)oc2c3c(ccc12)OCC(CN1CCN(C)CC1)(CN1CCN(C)CC1)C3=O |  |  |  |  |  |  |  |
